# Source: patent US20190008440A1, “Method and device to investigate or treat painful neuropathy” (priority 2017, published 2019)
# What was measured:
# A delta nociceptors = assay: Laser pin prick pain threshold (A delta fibers) of healthy volunteer after topical capsaicin; assay type: in vivo, human; conditions: beam 1 mm, 20 minutes after topical capsaicin on skin
# From the text: The following is a description a typical test procedure utilizing the present invention with the application of protocol Example 1 for healthy volunteers and pain patients:
# Step 1: Preparing volunteer for test. The volunteers were asked to respond to stimuli after each stimulus was applied, and describing the level and type of evoked sensation, location of sensation, how long the sensation lasts, whether the sensation was single (monomodal) or if more than one sensation were evoked by stimulation.
# Step 2: The level of power of laser was adjusted to skin type of volunteer and irradiated spot was selected as close as possible to A-delta receptors.
# Collimated beam with diameter 2 mm, within range of power 5.0-10.0 W and pulse duration 100 ms is applied to an investigated area of skin to determine the individual sensitivity and to map the location of A delta nociceptors. The power is increased with step 0.5 W until the first sensation is evoked. After that, the pulse power is fixed and the position of the irradiated spot is scanned (tuned) within an XY frame 5 mm×5 mm to find the location of the nociceptor and pulse power is applied for each new location with spatial steps of around 0.5 mm for fingertips.
# The inter-stimulus time was at least 20 sec. The first appeared sensation was rated by the volunteer as barely pricking pain without any other sensations of warmth or hot pain.
# After the location of receptors were determined, the summation curve—Power of Pain Threshold vs. Pulse Duration were measured by the following procedure: • 1) Collimated beam was adjusted to 1 mm, • 2) Duration of pulse set up to 50 ms and pulse power was increased from 2 W until volunteer reported about first appeared sensation. • 3) Afterwards, power was increased until volunteer reported that sensation became clearly painful, but decreasing of power of stimulus on 5-10% leads to the disappearance of pain. • 4) Afterward, the power threshold was measured for 50 ms pulse duration was increased by step 50 ms and procedure measurement of threshold was repeated. The increment of power was 0.1 W.
# The healthy volunteer was tested with pulse durations from 50 ms to 300 ms and beam size of 1 mm. The volunteer reported what around 200-300 ms, they felt on the same level of power firstly warmth and after that pricking pain but for pulses within range 50-150 ms, only single (monomodal) pricking pain was discerned. The sensations were sharp and disappeared in a few seconds after stimulation. The next stimulus was applied not earlier than 20 sec or after the disappearance of painful sensation of previous stimulus.
# The thresholds of pin prick pain of healthy volunteers were measured in 20 minutes after topical analgesic (capsaicin) was applied on skin. The Steps 2, 3 and 4 were repeated.
# C fibers = assay: Laser threshold pulse duration for hot pain (stimulation of C fibers), hairy skin of left hand; assay type: in vivo, human
# Method: Subjects: A chronic pain patient with hypersensitivity and a healthy volunteer were tested. Both subjects gave informed consent and the experiments were approved by the local institutional review board. The hairy skin of left hand was used for both volunteers. In preparing the subjects testing, they were asked to respond orally immediately after they perceived any threshold sensation and/or to interrupt lasing pulse by pressing STOP button. They then described the level and type of evoked sensation, location of sensation, how long the sensation lasted, whether the sensation was single (monomodal) sensation or if there were more than one evoked sensations by a single stimulation. Afterwards, the threshold pulse was applied 3 times to different areas with interval of {tilde over ( )}3 min or after the previous sensation (pain) had disappeared. The appearance redness was an indication of skin irritation.
# Step 1: To test duration of pulse that evoked threshold warmth sensation only, the output power was set to 1.5 W, beam size adjusted to 5 mm. The pulse was applied to the skin. When the volunteer reported warmth (pain) sensation the lasing was stopped. […]
# The laser radiation was stopped by volunteer. […] When this button was pushed the command “stop lasing” was activated, duration of applied pulse was measured and it was indicated on the screen of PC connected to the device by RS232 interface. […]
# A delta and C fibers = assay: Skin biopsies processed with PGP 9.5 biomarker, integral fiber density of A delta and C fibers in epidermis and dermis; assay type: in vivo, human; conditions: biopsies 7 days after treatment with 8% capsaicin patch
# From the text: In 7 days after treatment additional biopsies from laser and capsaicin treated areas together with control were taken and “blindly” processed with PGP 9.5 biomarker to determine the integral fiber density of the A delta and C fibers in epidermis and dermis.
# [1] = cited from earlier work
# C fiber mediated pain = conditions: in vivo; cited from earlier work
SMILES,"Power of Pain Thresholds of Healthy Volunteer (Capsaicin) (A delta nociceptors; pulse duration 50 ms, untreated healthy volunteer 9.5 W) [W]","Power of Pain Thresholds of Healthy Volunteer (Capsaicin) (A delta nociceptors; pulse duration 100 ms, untreated healthy volunteer 4.5 W) [W]","Power of Pain Thresholds of Healthy Volunteer (Capsaicin) (A delta nociceptors; pulse duration 150 ms, untreated healthy volunteer 3.2 W) [W]","Power of Pain Thresholds of Healthy Volunteer (Capsaicin) (A delta nociceptors; pulse duration 200 ms, untreated healthy volunteer 2.8 W) [W]","Power of Pain Thresholds of Healthy Volunteer (Capsaicin) (A delta nociceptors; pulse duration 300 ms, untreated healthy volunteer 2.5 W) [W]","threshold pulse duration, hot pain (C fibers; power 1.5 W, beam 5 mm, healthy volunteer affected topical capsaicin, stop button, untreated healthy volunteer 1300 ms) [ms]",effect on thresholds of warmth sensation and hot/burning pain (C fibers; topical capsaicin),fiber density below control (A delta and C fibers) [%],residual time ([1]; capsaicin solution used to stimulate neurogenic flare),duration of capsaicin induced flare ([1]; in vivo),residual time of capsaicin in the skin ([1]; patch application) [h],inhibition of C fiber mediated pain vs A delta fiber mediated pain (C fiber mediated pain)
COc1cc(CNC(=O)CCCC/C=C/C(C)C)ccc1O [capsaicin],14.8,7.0,5,4.3,3.9,800,decreases the thresholds of warmth sensation and hot/burning pain,10 to 20,over 48 hours,over several hours,48,–
CN1CC[C@]23c4c5ccc(O)c4O[C@H]2[C@@H](O)C=C[C@H]3[C@H]1C5 [morphine],–,–,–,–,–,–,–,–,–,–,–,much more effective in inhibiting C fiber mediated pain than A delta fiber mediated pain
